What was measured:
[1] = tested on: Symmetric di-Methyl Arginine in Z-138 cells; experiment: Z-138 Methylation Assay (In Cell Western for symmetric di-methyl arginine); format: cell-based; settings: Homo sapiens, 96 hours incubation, symmetric di-methyl arginine normalised to DNA content, read-out: ICW EC50
Source text: Z-138 suspension cells were purchased from ATCC (American Type Culture Collection, Manassas, Va.). RPMI/Glutamax medium, penicillin-streptomycin, heat inactivated fetal bovine serum, and D-PBS were purchased from Life Technologies, Grand Island, N.Y., USA. Odyssey blocking buffer, 800CW goat anti-rabbit IgG (H+L) antibody, and Licor Odyssey infrared scanner were purchased from Licor Biosciences, Lincoln, Nebr., USA. Symmetric di-methyl arginine antibody was purchased from EMD Millipore, Billerica, Mass., USA. 16% Paraformaldehyde was purchased from Electron Microscopy Sciences, Hatfield, Pa., USA.
Z-138 suspension cells were maintained in growth medium (RPMI 1640 supplemented with 10% v/v heat inactivated fetal bovine serum and 100 units/mL penicillin-streptomycin) and cultured at 37° C. under 5% CO2.
Cell Treatment, In Cell Western (ICW) for detection of Symmetric di-Methyl Arginine and DNA content.
Z-138 cells were seeded in assay medium at a concentration of 50,000 cells per mL to a 384-well cell culture plate with 50 μL per well. Compound (100 nL) from 384 well source plates was added directly to 384 well cell plate. Plates were incubated at 37° C., 5% CO2 for 96 hours. After four days of incubation, 40 μL of cells from incubated plates were added to poly-D-lysine coated 384 well culture plates (BD Biosciences 356697). Plates were incubated at room temperature for 30 minutes then incubated at 37° C., 5% CO2 for 5 hours. After the incubation, 40 μL per well of 8% paraformaldehyde in PBS (16% paraformaldahyde was diluted to 8% in PBS) was added to each plate and incubated for 30 minutes. Plates were transferred to a Biotek 405 plate washer and washed 5 times with 100 μL per well of wash buffer (IX PBS with 0.1% Triton X-100 (v/v)). Next […] well of Odyssey blocking buffer were added to each plate and incubated 1 hour at room temperature. Blocking buffer was removed and 20 μL per well of primary antibody was added (symmetric di-methyl arginine diluted 1:100 in Odyssey buffer with 0.1% Tween 20 (v/v)) and plates were incubated overnight (16 hours) at 4° C. Plates were washed 5 times with 100 μL per well of wash buffer. Next 20 μL per well of secondary antibody was added (1:200 800CW goat anti-rabbit IgG (H+L) antibody, 1:1000 DRAQ5 (Biostatus limited) in Odyssey buffer with 0.1% Tween 20 (v/v)) and incubated for 1 hour at room temperature. The plates were washed 5 times with 100 μL per well wash buffer then 1 time with 100 μL per well of water. Plates were allowed to dry at room temperature then imaged on the Licor Odyssey machine which measures integrated intensity at 700 nm and 800 nm wavelengths. Both 700 and 800 channels were scanned.
First, the ratio for each well was determined by:
Each plate included fourteen control wells of DMSO only treatment (minimum inhibition) as well as fourteen control wells for maximum inhibition treated with 3 μM of a reference compound (Background wells). The average of the ratio values for each control type was calculated and used to determine the percent inhibition for each test well in the plate. Reference compound was serially diluted three-fold in DMSO for a total of nine test concentrations, beginning at 3 μM. Percent inhibition was determined and IC50 curves were generated using triplicate wells per concentration of compound.

Z-138 cell line = experiment: Z-138 Proliferation Assay (Cell Titer Glo); format: cell-based; settings: Homo sapiens, 120 h; Z-138 cells, 5 days incubation, ATP (Cell Titer Glo)
Method in brief: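 Z-138 cells in RPMI with 10% FBS exposed 5 days at 37 °C to nine-point 3-fold dilutions, top 20 μM final, 0.2% DMSO, triplicate. ATP-based CellTiter-Glo luminescence; IC50 from 4-parameter fit of normalized curves.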

SMILES | EC50 [1] [µM] | EC50 (Z-138 cell line) [µM]
CC(=O)N1CCC(Nc2cc(C(=O)NC[C@H](O)CN3CCc4nc(C)sc4C3)ncn2)CC1 [Compound 1-7, (S)-6-((1-acetylpiperidin-4-yl)amino)-N-(2-hydroxy-3-(2-methyl-6,7-dihydrothiazolo[5,4-c]pyridin-5(4H)-yl)propyl)pyrimidine-4-carboxamide] | > 1 | > 5
CC(=O)N1CCC(Nc2cc(C(=O)NC[C@H](O)CN3CCc4nc(C)[nH]c4C3)ccn2)CC1 [Compound 3-54] | > 1 | > 5
CC(=O)N1CC(Nc2cc(C(=O)NC[C@H](O)CN3CCc4cnccc4C3)ncn2)C1 [Compound 2-16] | > 1 | > 5
CC(=O)N1CCC(Nc2cc(C(=O)NC[C@H](O)CN3CCc4sc(C)nc4C3)ccn2)CC1 [Compound 1-33] | > 1 | > 5
CC(=O)N1CCC(Nc2cc(C(=O)NC[C@H](O)CN3CCc4ncn(C)c4C3)ccn2)CC1 [Compound 3-24, (S)-2-((1-acetylpiperidin-4-yl)amino)-N-(2-hydroxy-3-(3-methyl-6,7-dihydro-3H-imidazo[4,5-c]pyridin-5(4H)-yl)propyl)isonicotinamide] | > 1 | > 5
CC(=O)N1CCC(Nc2cc(C(=O)NC[C@H](O)CN3CCc4nn(C)cc4C3)ncn2)CC1 [Compound 3-57] | > 1 | > 5
CC(=O)N1CCC(Nc2cc(C(=O)NC[C@H](O)CN3CCc4nn(C)cc4C3)ccn2)CC1 [Compound 3-53] | > 1 | > 5
O=C(COc1cccc2cccnc12)NCC(O)CN1CCc2ncccc2C1 (stereo not drawn) [Compound 2-6, N-[2-hydroxy-3-(5,6,7,8-tetrahydro-1,6-naphthyridin-6-yl)propyl]-2-(quinolin-8-yloxy)acetamide] | > 1 | > 5
CC(=O)N1CCC(Nc2cc(C(=O)NC[C@H](O)CN3CCc4c(cnn4C)C3)ccn2)CC1 [Compound 3-52] | > 1 | > 5
O=C(COc1cccc2cccnc12)NCC(O)CN1CCc2nc[nH]c2C1 (stereo not drawn) [Compound 3-10, N-(2-hydroxy-3-{3H,4H,5H,6H,7H-imidazo[4,5-c]pyridin-5-yl}propyl)-2-(quinolin-8-yloxy)acetamide] | > 1 | > 5
CC(=O)N1CCC(Nc2cc(C(=O)NC[C@H](O)CN3CCc4sc(N)nc4C3)ncn2)CC1 [Compound 1-37] | > 1 | > 5
O=C(NC[C@H](O)CN1CCc2[nH]cnc2C1)c1cc(NC2COC2)ncn1 [Compound 3-38, (S)—N-(3-(6,7-dihydro-1H-imidazo[4,5-c]pyridin-5(4H)-yl)-2-hydroxypropyl)-6-(oxetan-3-ylamino)pyrimidine-4-carboxamide] | > 1 | > 5
CC(=O)N1CC(Nc2cc(C(=O)NC[C@H](O)CN3CCc4[nH]cnc4C3)ncn2)C1 [Compound 3-33, (S)-6-((1-acetylazetidin-3-yl)amino)-N-(3-(6,7-dihydro-1H-imidazo[4,5-c]pyridin-5(4H)-yl)-2-hydroxypropyl)pyrimidine-4-carboxamide] | > 1 | > 5
CC(=O)N1CCC(Nc2cc(C(=O)NC[C@H](O)CN3CCc4nc(N)sc4C3)ccn2)CC1 [Compound 1-35] | > 1 | > 5
O=C(COc1cccc2cccnc12)NCC(O)CN1CCc2cnccc2C1 (stereo not drawn) [Compound 2-7, N-[2-hydroxy-3-(1,2,3,4-tetrahydro-2,6-naphthyridin-2-yl)propyl]-2-(quinolin-8-yloxy)acetamide] | > 1 | > 5
CC(=O)N1CCC(Nc2cc(C(=O)NC[C@H](O)CN3CCc4cnccc4C3)ncn2)CC1 [Compound 2-17, (S)-6-((1-acetylpiperidin-4-yl)amino)-N-(3-(3,4-dihydro-2,6-naphthyridin-2(1H)-yl)-2-hydroxypropyl)pyrimidine-4-carboxamide] | > 1 | > 5
Nc1nc2c(s1)CN(C[C@@H](O)CNC(=O)c1cc(NC3COC3)ncn1)CC2 [Compound 1-23] | > 1 | > 5
CC(=O)N1CCC(Nc2cc(C(=O)NC[C@H](O)CN3CCc4sc(C)nc4C3)ncn2)CC1 [Compound 1-36] | > 1 | > 5
CC(=O)N1CCC(Nc2cc(C(=O)NC[C@H](O)CN3CCCc4c3cnn4C)ncn2)CC1 [Compound 3-58] | > 1 | > 5
CC(=O)N1CCC(Nc2cc(C(=O)NC[C@H](O)CN3CCc4scc(C)c4C3)ncn2)CC1 [Compound 1-13, (S)-6-((1-acetylpiperidin-4-yl)amino)-N-(2-hydroxy-3-(3-methyl-6,7-dihydrothieno[3,2-c]pyridin-5(4H)-yl)propyl)pyrimidine-4-carboxamide] | < 0.1 | 0.101 to 1
CC(=O)N1CCC(Nc2cc(C(=O)NC[C@H](O)CN3CCc4nc(N)sc4C3)ncn2)CC1 [Compound 1-38] | > 1 | > 5
CC(=O)N1CC(Nc2cc(C(=O)NC[C@H](O)CN3CCc4ncsc4C3)ncn2)C1 [Compound 1-17, (S)-6-((1-acetylazetidin-3-yl)amino)-N-(3-(6,7-dihydrothiazolo[5,4-c]pyridin-5(4H)-yl)-2-hydroxypropyl)pyrimidine-4-carboxamide] | > 1 | > 5
CC(=O)N1CCC(Nc2cc(C(=O)NC[C@H](O)CN3CCc4[nH]ncc4C3)ccn2)CC1 [Compound 3-21] | > 1 | > 5
CC(=O)N1CC(Nc2cc(C(=O)NC[C@H](O)CN3CCc4[nH]nc(-c5ccccc5)c4C3)ncn2)C1 [Compound 3-11, (S)-6-((1-acetylazetidin-3-yl)amino)-N-(2-hydroxy-3-(3-phenyl-6,7-dihydro-1H-pyrazolo[4,3-c]pyridin-5(4H)-yl)propyl)pyrimidine-4-carboxamide] | > 1 | > 5
CC(=O)N1CC(Nc2cc(C(=O)NC[C@H](O)CN3CCc4ccncc4C3)ncn2)C1 [Compound 2-22] | > 1 | > 5
CC(=O)N1CCC(Nc2cc(C(=O)NC[C@H](O)CN3CCc4ccncc4C3)ncn2)CC1 [Compound 2-23, (S)-6-((1-acetylpiperidin-4-yl)amino)-N-(3-(3,4-dihydro-2,7-naphthyridin-2(1H)-yl)-2-hydroxypropyl)pyrimidine-4-carboxamide] | > 1 | > 5
O=C(NC[C@H](O)CN1CCc2cnccc2C1)c1cc(NC2COC2)ncn1 [Compound 2-15] | > 1 | > 5
CC(=O)N1CC(Nc2cc(C(=O)NC[C@H](O)CN3CCc4ncccc4C3)ncn2)C1 [Compound 2-9, (S)-6-((1-acetylazetidin-3-yl)amino)-N-(3-(7,8-dihydro-1,6-naphthyridin-6(5H)-yl)-2-hydroxypropyl)pyrimidine-4-carboxamide] | 0.101 to 1 | > 5
CC(=O)N1CCC(Nc2cc(C(=O)NC[C@H](O)CN3CCc4ncsc4C3)ncn2)CC1 [Compound 1-18, (S)-6-((1-acetylpiperidin-4-yl)amino)-N-(3-(6,7-dihydrothiazolo[5,4-c]pyridin-5(4H)-yl)-2-hydroxypropyl)pyrimidine-4-carboxamide] | > 1 | > 5
CC(=O)N1CCC(Nc2cc(C(=O)NC[C@H](O)CN3CCc4oc(C)nc4C3)ccn2)CC1 [Compound 4-4, (S)-2-((1-acetylpiperidin-4-yl)amino)-N-(2-hydroxy-3-(2-methyl-6,7-dihydrooxazolo[4,5-c]pyridin-5(4H)-yl)propyl)isonicotinamide] | > 1 | > 5
